Reference: patent publication EP4640686A1, “DEGRADER FOR DEGRADING BRD PROTEIN AND PHARMACEUTICAL COMPOSITION CONTAINING SAME” (Innocure Therapeutics, Inc., priority 2022, dated 2024)
Read-outs that look alike come from different tables or passages of the source.

What was measured:
Assay type in all cases: cell-based
[1] = biological target: T1, BRD4-NUT (Homo sapiens, UniProt O60885+Q86Y26); assay: BRD4-NUT protein degradation by western blotting in RPMI2650 cells (24 h treatment)
T1 construct: endogenous in cells; host or cells: RPMI2650
Procedure: (§1) The synthesized compounds were prepared with a 10 mM or 50 mM raw material solution dissolved in DMSO [dimethyl sulfoxide], and were diluted sequentially and treated. [RPMI2650] and [SNU2972] were cultivated under specific conditions.
(§2) To evaluate the resolution of PROTAC for BRD4 expressed in cells, cells were dispensed in a concentration of 5 X 10^5 cells/well in a 6-well plate, and the sample was treated for 24 hours. […] Protein expression was normalized based on the expression value of β or GAPDH, and protein expression in each sample was measured as % based on 100% of samples treated with 0.1% DMSO vehicle. Protein expression was quantified using Image J program. Change in protein expression volume by compound treatment (DC50: concentration of compounds where 50% protein expression inhibition is achieved) was calculated using the GraphicPad Prism 8.0 software.

[2] = tested on: RPMI2650; assay: Cancer cell antiproliferative activity / cell viability in RPMI2650 cells (72 h treatment); details: Homo sapiens
Procedure: The human breast cancer cell line [MDA-MB-231] was cultured in RPMI medium with the addition of 10% fetal bovine serum, penicillin [100U/ml], and streptomycin [[…]]. The synthesized compounds were prepared with a 10 mM or 50 mM raw material solution dissolved in DMSO [dimethyl sulfoxide], and were diluted sequentially and treated. [RPMI2650] and [SNU2972] were cultivated under specific conditions.
To observe cell growth inhibition, cells were dispensed in a concentration of 5,000 cells/well in a 96-well plate, and samples prepared at various concentrations were treated for 72 hours. The IC50 value (the concentration of the compound achieving 50% cytostaticism) is the average value of the results of three independent measurements.

[3] = biological target: BRD4 (Homo sapiens, UniProt O60885); assay: BRD4 protein degradation by western blotting in RPMI2650 cells (24 h treatment); set-up: To evaluate the resolution of PROTAC for BRD4 expressed in cells; endogenous in cells; host or cells: RPMI2650
Procedure: as §1, §2

[4] = RPM12650, read-out: BRD4-NUT (DC50)
[5] = RPMI-2650, RPM12650, read-out: Cell Viatility (IC50)
[6] = RPM12650, read-out: BRD4 (DC50)
[7] = RPMI-2650, 72 h, RPM12650, read-out: Cell Viatility (IC50)
[8] = read-out: BRD4-NUT (DC50), RPMI2650
[9] = read-out: BR04 (DC50), RPMI2650

| IC50 [2, 7] [µM] | DC50 [1, 8] [µM] | DC50 [3, 9] [µM] | Structure (SMILES) | DC50 [1, 4] [µM] | IC50 [2, 5] [µM] | DC50 [3, 6] [µM] | IC50 ([2]; RPMI-2650, RPMI2650, read-out: BRD4 (IC50)) [µM] |
| --- | --- | --- | --- | --- | --- | --- | --- |
| – | – | – | CC[C@@H]1c2nnc(C)n2-c2cnc(Nc3ccc(C(=O)NC4CCN(c5ccc6c(=O)n(C7CCC(=O)NC7=O)nc(C)c6c5)CC4)cc3OC)nc2N1CC1CCCCC1 (stereo partly drawn) [ICT-0001567, 4-{[(4R)-5-(cyclohexylmethyl)-4-ethyl-1-methyl-4H,5H-[1,2,4]triazolo[4,3-f]pteridine-7-yl]amino}-N-{1-[2-(2,6-dioxopiperidine-3-yl)-4-methyl-1-oxo-1,2-dihydroptalazine-6-yl]piperidine-4-yl}-3-methoxybenzamide] | > 1 | > 1 | > 1 | – |
| 0.1 to 1 | – | – | CC[C@@H]1c2nnc(C)n2-c2cnc(Nc3ccc(C(=O)NC4CCN(C(=O)CCN5CCN(c6ccc(NC7CCC(=O)NC7=O)cc6F)CC5)CC4)cc3OC)nc2N1CC1CCCCC1 (stereo partly drawn) [ICT-0001578, 4-{[(4R)-5-(cyclohexylmethyl)-4-ethyl-1-methyl-4H,5H-[1,2,4]triazolo[4,3-f]pteridine-7-yl]amino}-N-{1-[3-(4-{4-[(2,6-dioxopiperidin-3-yl)amino]-2-fluorophenyl}piperazine-1-yl)propanoyl]piperidine-4-yl}-3-methoxybenzamide] | > 1 | – | > 1 | – |
| – | – | – | CC[C@H]1c2nnc(C)n2-c2cnc(Nc3ccc(C(=O)N4CCN(c5ccc(NC6CCC(=O)N(C)C6=O)cc5F)CC4)c(OC)c3)nc2N1CC1CCCCC1 (stereo partly drawn) [ICT-0001554, 3-({4-[4-(4-{[(4S)-5-(cyclohexylmethyl)-4-ethyl-1-methyl-4H,5H-[1,2,4]triazolo[4,3-f]pteridine-7-yl]amino}-2-methoxybenzoyl)piperazine-1-yl]-3-fluorophenyl}amino)-1-methylpiperidine-2,6-dione] | > 1 | > 1 | > 1 | – |
| – | – | – | CCC1c2nnc(C)n2-c2cnc(Nc3ccc(C(=O)NC4CCN(CCN5CCN(c6ccc(NC7CCC(=O)NC7=O)cc6F)CC5)CC4)cc3OC)nc2N1CC1CCCCC1 [ICT-0001561, 4-{[(4S)-5-(cyclohexylmethyl)-4-ethyl-1-methyl-4H,5H-[1,2,4]triazolo[4,3-f]pteridine-7-yl]amino}-N-{1-[2-(4-{4-[(2,6-dioxopiperidin-3-yl)amino]-2-fluorophenyl}piperazine-1-il)ethyl]piperidine-4-yl}-3-methoxybenzamide] | < 0.1 | > 1 | < 0.1 | – |
| – | > 1 | > 1 | Cc1sc2c(c1C)C(c1ccc(Cl)cc1)=N[C@@H](CC(=O)Nc1ccc(OCCCCCc3ccc4c(=O)n(C5CCC(=O)NC5=O)ncc4c3)cc1)c1nnc(C)n1-2 (stereo partly drawn) [ICT-0001411, 2-[(9S)-7-(4-chlorophenyl)-4,5,13-trimethyl-3-thia-1,8,11,12-tetraazatricyclo[8.3.0.0^2,^6]trideca-2(6),4,7,10,12-pentaene-9-yl]-N-[4-({5-[2-(2,6-dioxopiperidin-3-yl)-1-oxo-1,2-dihydroptalazine-6-yl]pentyl}oxy)phenyl)acetamide] | – | – | – | – |
| – | > 1 | > 1 | Cc1sc2c(c1C)C(c1ccc(Cl)cc1)=N[C@@H](CC(=O)Nc1ccc(OCCCC#Cc3ccc4c(=O)n(C5CCC(=O)NC5=O)ncc4c3)cc1)c1nnc(C)n1-2 (stereo partly drawn) [ICT-0001409, 2-[(9S)-7-(4-chlorophenyl)-4,5,13-trimethyl-3-thia-1,8,11,12-tetraazatricyclo[8.3.0.0^2,^6]trideca-2(6),4,7,10,12-pentaene-9-yl]-N-[4-({5-[2-(2,6-dioxopiperidin-3-yl)-1-oxo-1,2-dihydroptalazine-6-yl]pent-4-phosphorus-1-yl}oxy)phenyl]acetamide] | – | – | – | – |
| – | – | – | CC[C@@H]1c2nnc(C)n2-c2cnc(Nc3ccc(C(=O)N4CCN(c5ccc(NC6CCC(=O)NC6=O)cc5F)CC4)cc3OC)nc2N1CC1CCCCC1 (stereo partly shown) [ICT-0001517] | < 0.1 | < 0.1 | < 0.1 | – |
| – | – | – | CC[C@@H]1c2nnc(C)n2-c2cnc(Nc3ccc(C(=O)N4CCN(CCNc5cccc6c(=O)n(C7CCC(=O)NC7=O)ncc56)CC4)cc3OC)nc2N1CC1CCCCC1 (stereo partly shown) [ICT-0001602] | 0.1 to 1 | > 1 | < 0.1 | – |
| – | – | – | CC[C@@H]1c2nnc(C)n2-c2cnc(Nc3ccc(C(=O)NC4CCN(CCCC#Cc5ccc6c(=O)n(C7CCC(=O)NC7=O)ncc6c5)CC4)cc3OC)nc2N1CC1CCCCC1 (stereo partly drawn) [ICT-0001534, 4-(((R)-5-(cyclohexylmethyl)-4-ethyl-1-methyl-4,5-dihydro-[1,2,4]triazolo[4,3-f]pteridine-7-yl)amino)N-(1-(5-(2-(2,6-dioxopiperidin-3-yl)1-oxo-1,2-dihydroptalazine-6-yl)pent-4-phosphorus-1-yl)piperidine-4-yl)-3-methoxybenzamide] | > 1 | > 1 | > 1 | – |
| – | – | – | CC[C@@H]1c2nnc(C)n2-c2cnc(Nc3ccc(C(=O)N4CCC(N5CCN(c6ccc7c(=O)n(C8CCC(=O)NC8=O)nc(C)c7c6)CC5)CC4)cc3OC)nc2N1CC1CCCCC1 (stereo partly drawn) [ICT-0001556, 3-(6-(4-(1-(4-(((R)-5-(cyclohexylmethyl)-4-ethyl-1-methyl-4,5-dihydro-[1,2,4]triazolo[4,3-f]pteridine-7-yl)amino)3-methoxybenzoyl)piperidine-4-yl)piperazine-1-yl)4-methyl-1-oxopthalazine-2(1H)-yl)piperidine-2,6-dione] | < 0.1 | > 1 | < 0.1 | – |
| – | – | – | CC[C@@H]1c2nnc(C)n2-c2cnc(Nc3ccc(C(=O)N4CCC(CN5CCN(c6ccc7c(=O)n(C8CCC(=O)NC8=O)nc(C)c7c6)CC5)CC4)cc3OC)nc2N1CC1CCCCC1 (stereo partly drawn) [ICT-0001553, 3-(6-(4-(1-(4-(((R)-5-(cyclohexylmethyl)-4-ethyl-1-methyl-4,5-dihydro-[1,2,4]triazolo[4,3-f]pteridine-7-yl)amino)3-methoxybenzoyl)piperidine-4-yl)piperazine-1-yl)4-methyl-1-oxopthalazine-2(1H)-yl)piperidine-2,6-dione] | 0.1 to 1 | > 1 | < 0.1 | – |
| – | – | – | CCC1c2nnc(C)n2-c2cnc(Nc3ccc(C(=O)NC4CCN(CCN5CCN(c6ccc7c(=O)n(C8CCC(=O)NC8=O)nc(C)c7c6)CC5)CC4)cc3OC)nc2N1CC1CCCCC1 [ICT-0001560, 4-{[(4S)-5-(cyclohexylmethyl)-4-ethyl-1-methyl-4H,5H-[1,2,4]triazolo[4,3-f]pteridine-7-yl]amino}-N-[1-(2-{4-[2-(2,6-dioxopiperidine-3-yl)-4-methyl-1-oxo-1,2-dihydroptalazine-6-yl]piperazine-1-yl}ethyl)piperidine-4-yl]-3-methoxybenzamide] | < 0.1 | > 1 | < 0.1 | – |
| – | – | – | CC[C@@H]1c2nnc(C)n2-c2cnc(Nc3ccc(C(=O)NCCOCCOCCOCCNc4cccc5cnn(C6CCC(=O)NC6=O)c(=O)c45)cc3OC)nc2N1CC1CCCCC1 (stereo partly shown) [ICT-0001549] | > 1 | 0.1 to 1 | < 0.1 | – |
| > 1 | – | – | CC[C@@H]1c2nnc(C)n2-c2cnc(Nc3ccc(C(=O)NC4CCN(C(=O)CCCCN5CCN(c6ccc(NC7CCC(=O)NC7=O)cc6F)CC5)CC4)cc3OC)nc2N1CC1CCCCC1 (stereo partly drawn) [ICT-0001571, 4-{[(4R)-5-(cyclohexylmethyl)-4-ethyl-1-methyl-4H,5H-[1,2,4]triazolo[4,3-f]pteridine-7-yl]amino}-N-{1-[5-(4-{4-[(2,6-dioxopiperidin-3-yl)amino]-2-fluorophenyl}piperazine-1-yl)pentanoyl]piperidine-4-yl}-3-methoxybenzamide] | > 1 | – | > 1 | – |
| – | – | – | CC[C@@H]1c2nnc(C)n2-c2cnc(Nc3ccc(C(=O)N4CCN(c5ccc6c(=O)n(C7CCC(=O)NC7=O)ncc6c5)CC4)cc3OC)nc2N1CC1CCCCC1 (stereo partly shown) [ICT-0001577] | > 1 | > 1 | > 1 | – |

| Structure (SMILES) | IC50 [2, 7] [µM] | DC50 [1, 8] [µM] | DC50 [3, 9] [µM] | DC50 [1, 4] [µM] | IC50 [2, 5] [µM] | DC50 [3, 6] [µM] | IC50 ([2]; RPMI-2650, RPMI2650, read-out: BRD4 (IC50)) [µM] |
| --- | --- | --- | --- | --- | --- | --- | --- |
| Cc1sc2c(c1C)C(c1ccc(Cl)cc1)=N[C@@H](CC(=O)Nc1ccc(OC[C@@H]3CN(c4ccc5c(=O)n(C6CCC(=O)NC6=O)nc(C)c5c4)CCO3)cc1)c1nnc(C)n1-2 (stereo partly drawn) [ICT-0001430, 2-[(9S)-7-(4-chlorophenyl)-4,5,13-trimethyl-3-thia-1,8,11,12-tetraazatricyclo[8.3.0.0^2,^6]trideca-2(6),4,7,10,12-pentaene-9-yl]-N-(4-{[(2S)-4-[2-(2,6-dioxopiperidin-3-yl)-4-methyl-1-oxo-1,2-dihydroptalazine-6-yl]morpholine-2-yl]methoxy}phenyl)acetamide] | – | < 0.1 | < 0.1 | – | – | – | 0.1 to 1 |
